Target: T1, DAPK2 (Homo sapiens, UniProt Q9UIK4)
T1 construct: purchased Thermo Fisher Scientific (Life Technologies) SelectScreen
Test: SelectScreen LanthaScreen
Assay type: binding
Conditions: read-out: % displacement
In short: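 Percent values come from Thermo SelectScreen profiling of NU5455, combining activity and binding assays. CSF1R was run in Z'LYTE format at Km app ATP, and CAMK1 in Adapta format with ATP listed at 10.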

T1 sequence (Q9UIK4 whole entry): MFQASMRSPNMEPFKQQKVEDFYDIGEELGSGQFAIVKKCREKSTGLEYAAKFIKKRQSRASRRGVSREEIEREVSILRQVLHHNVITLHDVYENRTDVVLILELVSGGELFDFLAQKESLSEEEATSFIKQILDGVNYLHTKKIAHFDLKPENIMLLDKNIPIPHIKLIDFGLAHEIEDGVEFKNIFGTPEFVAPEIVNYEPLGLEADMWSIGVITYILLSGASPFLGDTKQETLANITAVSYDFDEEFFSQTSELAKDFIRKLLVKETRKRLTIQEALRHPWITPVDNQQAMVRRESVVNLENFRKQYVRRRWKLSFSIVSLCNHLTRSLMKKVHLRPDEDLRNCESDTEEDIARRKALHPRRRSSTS

`CN(C(=O)CN1CCOCC1)c1ccc2sc3c(-c4cccc5c(=O)cc(N6CC7CCC(C6)O7)oc45)cccc3c2c1` [NU5455] was tested, and the inhibition at 1 µM was 2.9%.

— publication PMC6934184, “Selective DNA-PKcs inhibition extends the therapeutic index of localized radiotherapy and chemotherapy” (The Journal of Clinical Investigation, 2019)
